According to ChEMBL document CHEMBL4334525, “Alopecuroides A-E, Matrine-Type Alkaloid Dimers from the Aerial Parts of Sophora alopecuroides” (J Nat Prod, 2019):
Calls of active or inactive are those of the source. The calls are words filed in the database; no cut-off is given here.

Tests used:
RAW264.7 [1] = test: Antiinflammatory activity against LPS-stimulated mouse RAW264.7 cells assessed as inhibition of LPS-induced IL-6 production by measuring IL-6 level at 50 uM preincubated for 2 hrs followed by LPS treatment and measured after 16 hrs by ELISA (reference value: 100 +/- 1.33%); format: functional; set-up: scale not given: the % may be the effect or the level left
RAW264.7 [2] = test: Cytotoxicity against mouse RAW264.7 cells at 50 uM after 24 hrs by MTT assay; format: cell-based; details: raw264.7, 24 h
RAW264.7 [3] = test: Cytotoxicity against mouse RAW264.7 cells at 50 uM after 24 hrs in presence of 1 ug/ml LPS by MTT assay; format: cell-based; details: raw264.7, 24 h
RAW264.7 [4] = test: Antiinflammatory activity against LPS-stimulated mouse RAW264.7 cells assessed as inhibition of LPS-induced TNFalpha production by measuring TNFalpha level at 50 uM preincubated for 2 hrs followed by LPS treatment and measured after 16 hrs by ELISA (reference value: 100 +/- 0.45%); format: functional

Row | SMILES | Activity (RAW264.7 [1]) | Activity (RAW264.7 [2]) | Activity (RAW264.7 [3]) | TNFalpha level (% of LPS control) (RAW264.7 [4])
1 | N#C[C@H]1N2CCC[C@H]3[C@@H]2[C@H](CN2C(=O)CCC[C@H]32)[C@H]2O[C@]21[C@@H]1CC[C@H]2[C@@H]3[C@@H](CCCN31)CN1C(=O)CCC[C@H]21 | 67.85% | Non-Toxic | Non-Toxic | 96.64%
2 | O=C1CCC[C@@H]2[C@H]3CCCN[C@H]3[C@H](CCC[C@H]3C[C@H]4CN5C(=O)CCC[C@@H]5[C@H]5CCCN(C3)[C@@H]45)CN12 | inactive | Non-Toxic | Non-Toxic | 69.14%
3 | O=C1CCC[C@@H]2[C@H]3CCCN4CCC[C@@H](CN12)[C@@H]34 [MATRINE] | 65.49% | – | – | 72.48%
4 | O=C1CCC[C@@H]2[C@H]3CCCN4CC([C@@H]5CC[C@H]6[C@@H]7[C@@H](CCCN75)CN5C(=O)CCC[C@H]65)=C[C@@H](CN12)[C@@H]34 | 60.08% | Non-Toxic | Non-Toxic | 70.86%
5 | O=C1CCC[C@@H]2[C@H]3CC([C@H]4CC[C@H]5CN6C(=O)CCC[C@@H]6[C@H]6CCCN4[C@@H]56)=CN4CCC[C@@H](CN12)[C@@H]34 | 73.9% | Non-Toxic | Non-Toxic | 49.59%
6 | N#C[C@@H]1N2CCC[C@H]3CN4C(=O)CCC[C@@H]4[C@H]([C@H]32)[C@@H]2O[C@]12[C@H]1CC[C@H]2CN3C(=O)CCC[C@@H]3[C@H]3CCCN1[C@@H]23 | 52.87% | Non-Toxic | Non-Toxic | 50.05%
